Data taken from patent US11268068B2, “In vitro model of metastatic cancer” (THE JOHNS HOPKINS UNIVERSITY, priority 2014, dated 2022).

Assays:
[1] = test system: human cancer cells in 3D-culture; settings: Gomes et al., Oncogene 2015; cited from earlier work
[2] = test system: parental and rs-monolayer population of Huh7 cells; assay: Chemosensitivity assay (cell viability after 3-BrPA); format: cell-based, human; settings: Huh7 (luc-Huh7) cells, rs-monolayer vs parental monolayer, FIG. 7B
Method: Assessment of the chemosensitivity of parental cell population and rs-monolayer population was performed using the antiglycolytic agent, 3-bromopyruvate (3-BrPA). In brief, cells were plated in 96-well plates the day before treatment. Analysis of cell viability following the addition of 3-BrPA was performed as described other cell lines^22.

Structure (SMILES)	Sensitivity of 3D-culture compared with corresponding monolayer culture [1]	IC50 of rs-monolayer cells compared to the parental population [2]	IC50 of rs-monolayer cells compared to the parental population ([2]; listed as 3-bromopyruvate)
COc1cccc2c1C(=O)c1c(O)c3c(c(O)c1C2=O)C[C@@](O)(C(=O)CO)C[C@@H]3O[C@H]1C[C@H](N)[C@H](O)[C@H](C)O1 [doxorubicin]	more sensitive		
O=C(O)C(=O)CBr [3-BrPA, 3-bromopyruvate]		An increase in IC50 of rs-monolayer cells compared to the parental population	rs-monolayer cells require a higher concentration of drug
